Our source for the IC50 and Activity values is ChEMBL document CHEMBL4673238, “Discovery of 3-(benzofuran-2-ylmethyl)-1H-indole derivatives as potential autophagy inducers in cervical cancer cells” (Bioorg Med Chem Lett, 2020).

The source made the active and inactive calls. The rule behind the calls is not given here.

Assay type in all cases: functional, cell-based
Assay [1] concerns C-33-A. The assay can be described thus: Cytotoxicity against human C-33-A cells.
Assay [2] relates to SiHa. Put plainly: Cytotoxicity against human SiHa cells.
The subject of assay [3] is SiHa. The assay can be described thus: Induction of autophagy in human SiHa cells assessed as […] in GFP-LC3 level by fluorescence microscopy.
Assay [4] deals with C-33-A. The assay can be described thus: Induction of autophagy in human C-33-A cells assessed as decrease in p62 expression at 30 uM incubated for 42 hrs by microscopic analysis.
Assay [5] deals with SiHa. Put plainly: Induction of autophagy in human SiHa cells assessed as vacuole formation incubated for 24 hrs by microscopic analysis.
For assay [6], the system named is C-33-A. The assay can be described thus: Induction of autophagy in human C-33-A cells assessed as increase in LC3I to LC3II conversion at 30 uM incubated for 42 hrs by microscopic analysis.
Assay [7] relates to SiHa. The assay can be described thus: Induction of autophagy in human SiHa cells assessed as decrease in p62 expression at 30 uM measured upto 42 hrs by microscopic analysis. Conditions: time hrs <=42.
Assay [8] has as its system SiHa. The assay can be described thus: Induction of autophagy in human SiHa cells assessed as increase in LC3I to LC3II conversion at 30 uM measured upto 42 hrs by microscopic analysis. To be noted: time hrs <=42.

Consider `Cc1[nH]c2ccccc2c1C(c1ccccc1)c1cc2cc(Cl)ccc2o1` (stereo not given), for which the IC50 was found to be 38.7 µM in the assay with C-33-A [1] and 47.5 µM in the assay on SiHa [2].

As to `COc1ccc(C(c2cc3ccccc3o2)c2c(C)[nH]c3ccccc23)cc1` (stereo not given), the IC50 with SiHa [2] was > 100 µM. Consider `Clc1ccc2oc(C(c3ccccc3)c3c[nH]c4ccccc34)cc2c1` (stereo not given), for which, in the assay with SiHa [2], the IC50 amounted to 58 µM. The same measure, in the same setting: the figure for `COc1ccc(C(c2cc3cc(C(C)(C)C)cc(C(C)(C)C)c3o2)c2c[nH]c3ccc([N+](=O)[O-])cc23)cc1` (stereo not given) is > 100 µM. Take `CC(C)(C)c1cc(C(C)(C)C)c2oc(C(c3ccc(Cl)cc3)c3c[nH]c4ccccc34)cc2c1` (stereo not given): the values for the IC50 with C-33-A [1] and in the assay on SiHa [2] were 34.2 µM and 49.8 µM, respectively. `Cc1c(C(c2ccccc2)c2cc3cc(Cl)ccc3o2)[nH]c2ccccc12` (stereo not given) registered a concentration for half-maximal inhibition (IC50) in the assay with SiHa [2] of 77.9 µM. For the compound `COc1ccc2oc(C(c3ccccc3)c3c[nH]c4ccccc34)cc2c1` (stereo not given), in the assay on SiHa [2], the half-inhibitory concentration (IC50) is > 100 µM. As for `Cc1[nH]c2ccccc2c1C(c1ccc(Cl)cc1)c1cc2cc(C(C)(C)C)cc(C(C)(C)C)c2o1` (stereo not given), the result in the assay with SiHa [3], in the assay on C-33-A [4], with SiHa [5], with C-33-A [6], with SiHa [7] and in the assay with SiHa [8] was Active. The IC50 in the assay on C-33-A [1] was determined as 31.2 µM; in the assay with SiHa [2], 35.9 µM. Consider `Cc1c(C(c2ccc(Cl)cc2)c2cc3ccccc3o2)[nH]c2ccccc12` (stereo not given), for which inhibition with SiHa [2] was half-maximal at 72.5 µM (IC50). On the same count and under the same terms, the figure for `O=[N+]([O-])c1ccc2[nH]cc(C(c3ccccc3)c3cc4cc(Cl)ccc4o3)c2c1` (stereo not given) is > 100 µM. The same measure, in the same setting: the figure for `Cc1c(C(c2ccccc2)c2cc3cc(C(C)(C)C)cc(C(C)(C)C)c3o2)[nH]c2ccccc12` (stereo not given) is > 100 µM; for `CC(C)(C)c1cc(C(C)(C)C)c2oc(C(c3ccccc3)c3c[nH]c4ccccc34)cc2c1` (stereo not given) it is 61.6 µM.

With `O=[N+]([O-])c1ccc2[nH]cc(C(c3ccccc3)c3cc4ccccc4o3)c2c1` (stereo not given), the figures for the half-inhibitory concentration (IC50) with C-33-A [1] and in the assay with SiHa [2] were 35.2 µM and 40.4 µM, respectively. The compound `c1ccc(C(c2cc3ccccc3o2)c2c[nH]c3ccccc23)cc1` (stereo not given) came in with an IC50 in the assay with SiHa [2] of 71.1 µM. Still for that read-out and setting: the figure for `Cc1[nH]c2ccccc2c1C(c1ccccc1)c1cc2cc(C(C)(C)C)cc(C(C)(C)C)c2o1` (stereo not given) is 72 µM. The same measure, in the same setting: the figure for `CC(C)(C)c1cc(C(C)(C)C)c2oc(C(c3ccccc3)c3c[nH]c4ccc([N+](=O)[O-])cc34)cc2c1` (stereo not given) is 48.2 µM. Compound `Cc1[nH]c2ccccc2c1C(c1ccccc1)c1cc2ccccc2o1` (stereo not given) returned an IC50 in the assay with SiHa [2] of 56.5 µM. Take `CC(C)(C)c1cc(C(C)(C)C)c2oc(C(c3ccc(Cl)cc3)c3c[nH]c4ccc([N+](=O)[O-])cc34)cc2c1` (stereo not given): the result in the assay on SiHa [3], in the assay with C-33-A [4], with SiHa [5], in the assay on C-33-A [6], with SiHa [7] and in the assay on SiHa [8] was Active. Moreover, the IC50 worked out at 29.4 µM with C-33-A [1] and 36.9 µM in the assay with SiHa [2]. With `COc1ccc(C(c2cc3ccccc3o2)c2[nH]c3ccccc3c2C)cc1` (stereo not given), the half-maximal inhibitory concentration (IC50) in the assay with SiHa [2] was > 100 µM. As for `COc1ccc(C(c2cc3ccccc3o2)c2c[nH]c3ccccc23)cc1` (stereo not given), in the assay on SiHa [2], the IC50 is > 100 µM.

In the case of `COc1ccc2oc(C(c3ccccc3)c3c(C)[nH]c4ccccc34)cc2c1` (stereo not given), the IC50 in the assay on SiHa [2] is > 100 µM.

For the compound `Cc1c(C(c2ccccc2)c2cc3ccccc3o2)[nH]c2ccccc12` (stereo not given), in the assay on SiHa [2], the IC50 was > 100 µM. As to `COc1ccc2oc(C(c3ccccc3)c3[nH]c4ccccc4c3C)cc2c1` (stereo not given), the IC50 in the assay on SiHa [2] was > 100 µM.
